Source: US9717728B2, “Pharmaceutical combination comprising a B-Raf inhibitor and a histone deacetylase inhibitor and their use in the treatment of proliferative diseases” (NOVARTIS AG, priority 2012, dated 2017)
Entries after “also recorded” stand apart in the source; their conditions may differ.

What was measured:
Mel-P3-Post [1] = experiment: z-VAD-fmk-FITC staining for caspase positive cells; assay type: cell-based, human; conditions: 48 hours
Text: (§1) Cell lines: Mel-PX-Pre and Mel-PX-post represent cell lines derived from patient-X pre- and post-treatment with vemurafenib.

Mel-P1-Pre = experiment: Sub-G1 analysis of dead cells; assay type: cell-based, human; conditions: 48 hours
Text: as §1

Mel-P4-Pre = experiment: Sub-G1 analysis of dead cells; assay type: cell-based, human; conditions: 48 hours
Text: as §1

Mel-P4-Post = experiment: Sub-G1 analysis of dead cells; assay type: cell-based, human; conditions: 48 hours
Text: as §1

Mel-P1-Post = experiment: Sub-G1 analysis of dead cells; assay type: cell-based, human; conditions: 48 hours
Text: as §1

Mel-P3-Post [2] = experiment: JC1 staining for mitochondrial depolarisation; assay type: cell-based, human
Text: as §1

Mel-P3-Pre [3] = experiment: Annexin-V staining per quadrant (flow cytometry); assay type: cell-based, human; conditions: 48 hours
Text: as §1

Mel-P3-Post [4] = experiment: Annexin-V staining per quadrant (flow cytometry); assay type: cell-based, human; conditions: 48 hours
Text: as §1

Melanocytes (NHEM) = experiment: Cell cycle staining and sub-G1 analysis of dead cells (flow cytometry); assay type: cell-based; conditions: for CELL CYCLE AVG G1 / CELL CYCLE AVG G2/M / CELL CYCLE AVG S / sub-G1 %: Melanocytes (NHEM), 48 hours
Mel-P3-Pre [5] = experiment: as above; assay type: cell-based, human; conditions: for CELL CYCLE AVG G1 / CELL CYCLE AVG G2/M / CELL CYCLE AVG S / sub-G1 %: Mel-P3-Pre, 48 hours
Text: as §1

Mel-P3-Post [6] = experiment: as above; assay type: cell-based, human; conditions: for CELL CYCLE AVG G1 / CELL CYCLE AVG G2/M / CELL CYCLE AVG S / sub-G1 %: Mel-P3-Post, 48 hours
Text: as §1

melanoma lines = experiment: Cell cycle arrest and apoptosis in matched pre and post melanoma cell lines; assay type: cell-based, human; conditions: B-Raf-mutant melanoma, listed as B-Raf inhibitor of Formula (I)
Protocol: The B-Raf inhibitor of Formula (I) was tested on the matched pre and post cell lines established from patients before treatment and after progression on vemurafenib treatment. […] Combining panobinostat with the B-Raf inhibitor of Formula (I), caused a synergistic increase in apoptosis in melanoma lines. The increase in apoptosis was also observed in the “post” cell lines which had previously acquired resistance to the B-Raf inhibitor, vemurafenib.

SMILES: Cc1[nH]c2ccccc2c1CCNCc1ccc(/C=C/C(=O)NO)cc1 [HDAI, reference compound]
- z-VAD-fmk positive (Mel-P3-Post [1]; B-Raf 0 uM, HDAI 30 nM): 23
- sub-G1 % (Mel-P1-Pre; B-Raf 0 uM, HDAI 30 nM): 21%
- sub-G1 % (Mel-P4-Pre; B-Raf 0 uM, HDAI 30 nM): 40%
- sub-G1 % (Mel-P4-Post; B-Raf 0 uM, HDAI 30 nM): 24%
- sub-G1 % (Mel-P1-Post; B-Raf 0 uM, HDAI 30 nM): 14%
- Depolarised mitochondria (Mel-P3-Post [2]; B-Raf 0 uM, HDAI 30, 48 hours): 86
- Annexin Staining per quadrant. Lower Left* (“healthy” cells) (Mel-P3-Pre [3]; B-Raf 0 uM, HDAI 30 nM): 85
- Annexin Staining per quadrant. Lower Right (Mel-P3-Pre [3]; B-Raf 0 uM, HDAI 30 nM): 8
- Annexin Staining per quadrant. Upper Left (Mel-P3-Pre [3]; B-Raf 0 uM, HDAI 30 nM): 1
- Annexin Staining per quadrant. Upper Right (Mel-P3-Pre [3]; B-Raf 0 uM, HDAI 30 nM): 6
- Annexin Staining per quadrant. Lower Left* (“healthy” cells) (Mel-P3-Post [4]; B-Raf 0 uM, HDAI 30 nM): 83
- Annexin Staining per quadrant. Lower Right (Mel-P3-Post [4]; B-Raf 0 uM, HDAI 30 nM): 9
- Annexin Staining per quadrant. Upper Left (Mel-P3-Post [4]; B-Raf 0 uM, HDAI 30 nM): 0
- Annexin Staining per quadrant. Upper Right (Mel-P3-Post [4]; B-Raf 0 uM, HDAI 30 nM): 8
- cell death of melanocytes (in words) (Melanocytes (NHEM)): did not die
- CELL CYCLE AVG G1 (Melanocytes (NHEM); B-Raf 0 uM, HDAI 30 nM): 88
- CELL CYCLE AVG G2/M (Melanocytes (NHEM); B-Raf 0 uM, HDAI 30 nM): 7
- CELL CYCLE AVG S (Melanocytes (NHEM); B-Raf 0 uM, HDAI 30 nM): 5
- sub-G1 % (Melanocytes (NHEM); B-Raf 0 uM, HDAI 30 nM): 1%
- CELL CYCLE AVG G1 (Mel-P3-Pre [5]; B-Raf 0 uM, HDAI 30 nM): 70
- CELL CYCLE AVG G2/M (Mel-P3-Pre [5]; B-Raf 0 uM, HDAI 30 nM): 21
- CELL CYCLE AVG S (Mel-P3-Pre [5]; B-Raf 0 uM, HDAI 30 nM): 9
- sub-G1 % (Mel-P3-Pre [5]; B-Raf 0 uM, HDAI 30 nM): 17%
- CELL CYCLE AVG G1 (Mel-P3-Post [6]; B-Raf 0 uM, HDAI 30 nM): 69
- CELL CYCLE AVG G2/M (Mel-P3-Post [6]; B-Raf 0 uM, HDAI 30 nM): 22
- CELL CYCLE AVG S (Mel-P3-Post [6]; B-Raf 0 uM, HDAI 30 nM): 9
- sub-G1 % (Mel-P3-Post [6]; B-Raf 0 uM, HDAI 30 nM): 15%

SMILES: COC(=O)N[C@@H](C)CNc1nccc(-c2cn(C(C)C)nc2-c2cc(Cl)cc(NS(C)(=O)=O)c2F)n1 [B-Raf]
- z-VAD-fmk positive (Mel-P3-Post [1]; B-Raf 5 uM, HDAI 0 nM): 14
- cell cycle arrest and apoptosis (in words) (melanoma lines): potent cell cycle inhibition and cell line-dependent apoptosis; also recorded: potent G1 arrest and cell-line dependent apoptosis
- sub-G1 % (Mel-P1-Pre; B-Raf 10 uM, HDAI 0 nM): 10%
- sub-G1 % (Mel-P4-Pre; B-Raf 10 uM, HDAI 0 nM): 58%
- sub-G1 % (Mel-P4-Post; B-Raf 10 uM, HDAI 0 nM): 54%
- sub-G1 % (Mel-P1-Post; B-Raf 10 uM, HDAI 0 nM): 10%
- Depolarised mitochondria (Mel-P3-Post [2]; B-Raf 5 uM, HDAI 0, 48 hours): 88
- Annexin Staining per quadrant. Lower Left* (“healthy” cells) (Mel-P3-Pre [3]; B-Raf 0.1 uM, HDAI 0 nM): 88
- Annexin Staining per quadrant. Lower Right (Mel-P3-Pre [3]; B-Raf 0.1 uM, HDAI 0 nM): 7
- Annexin Staining per quadrant. Upper Left (Mel-P3-Pre [3]; B-Raf 0.1 uM, HDAI 0 nM): 0
- Annexin Staining per quadrant. Upper Right (Mel-P3-Pre [3]; B-Raf 0.1 uM, HDAI 0 nM): 4
- Annexin Staining per quadrant. Lower Left* (“healthy” cells) (Mel-P3-Pre [3]; B-Raf 1 uM, HDAI 0 nM): 85
- Annexin Staining per quadrant. Lower Right (Mel-P3-Pre [3]; B-Raf 1 uM, HDAI 0 nM): 8
- Annexin Staining per quadrant. Upper Left (Mel-P3-Pre [3]; B-Raf 1 uM, HDAI 0 nM): 0
- Annexin Staining per quadrant. Upper Right (Mel-P3-Pre [3]; B-Raf 1 uM, HDAI 0 nM): 6
- Annexin Staining per quadrant. Lower Left* (“healthy” cells) (Mel-P3-Pre [3]; B-Raf 10 uM, HDAI 0 nM): 73
- Annexin Staining per quadrant. Lower Right (Mel-P3-Pre [3]; B-Raf 10 uM, HDAI 0 nM): 13
- Annexin Staining per quadrant. Upper Left (Mel-P3-Pre [3]; B-Raf 10 uM, HDAI 0 nM): 1
- Annexin Staining per quadrant. Upper Right (Mel-P3-Pre [3]; B-Raf 10 uM, HDAI 0 nM): 13
- Annexin Staining per quadrant. Lower Left* (“healthy” cells) (Mel-P3-Post [4]; B-Raf 0.1 uM, HDAI 0 nM): 91
- Annexin Staining per quadrant. Lower Right (Mel-P3-Post [4]; B-Raf 0.1 uM, HDAI 0 nM): 5
- Annexin Staining per quadrant. Upper Left (Mel-P3-Post [4]; B-Raf 0.1 uM, HDAI 0 nM): 0
- Annexin Staining per quadrant. Upper Right (Mel-P3-Post [4]; B-Raf 0.1 uM, HDAI 0 nM): 4
- Annexin Staining per quadrant. Lower Left* (“healthy” cells) (Mel-P3-Post [4]; B-Raf 1 uM, HDAI 0 nM): 91
- Annexin Staining per quadrant. Lower Right (Mel-P3-Post [4]; B-Raf 1 uM, HDAI 0 nM): 5
- Annexin Staining per quadrant. Upper Left (Mel-P3-Post [4]; B-Raf 1 uM, HDAI 0 nM): 0
- Annexin Staining per quadrant. Upper Right (Mel-P3-Post [4]; B-Raf 1 uM, HDAI 0 nM): 4
- Annexin Staining per quadrant. Lower Left* (“healthy” cells) (Mel-P3-Post [4]; B-Raf 10 uM, HDAI 0 nM): 89
- Annexin Staining per quadrant. Lower Right (Mel-P3-Post [4]; B-Raf 10 uM, HDAI 0 nM): 5
- Annexin Staining per quadrant. Upper Left (Mel-P3-Post [4]; B-Raf 10 uM, HDAI 0 nM): 0
- Annexin Staining per quadrant. Upper Right (Mel-P3-Post [4]; B-Raf 10 uM, HDAI 0 nM): 6
- cell death of melanocytes (in words) (Melanocytes (NHEM)): did not die
- CELL CYCLE AVG G1 (Melanocytes (NHEM); B-Raf 10 uM, HDAI 0 nM): 98
- CELL CYCLE AVG G2/M (Melanocytes (NHEM); B-Raf 10 uM, HDAI 0 nM): 1
- CELL CYCLE AVG S (Melanocytes (NHEM); B-Raf 10 uM, HDAI 0 nM): 1
- sub-G1 % (Melanocytes (NHEM); B-Raf 10 uM, HDAI 0 nM): 3%
- CELL CYCLE AVG G1 (Mel-P3-Pre [5]; B-Raf 0.1 uM, HDAI 0 nM): 85
- CELL CYCLE AVG G2/M (Mel-P3-Pre [5]; B-Raf 0.1 uM, HDAI 0 nM): 6
- CELL CYCLE AVG S (Mel-P3-Pre [5]; B-Raf 0.1 uM, HDAI 0 nM): 10
- sub-G1 % (Mel-P3-Pre [5]; B-Raf 0.1 uM, HDAI 0 nM): 10%
- CELL CYCLE AVG G1 (Mel-P3-Pre [5]; B-Raf 1 uM, HDAI 0 nM): 90
- CELL CYCLE AVG G2/M (Mel-P3-Pre [5]; B-Raf 1 uM, HDAI 0 nM): 6
- CELL CYCLE AVG S (Mel-P3-Pre [5]; B-Raf 1 uM, HDAI 0 nM): 5
- sub-G1 % (Mel-P3-Pre [5]; B-Raf 1 uM, HDAI 0 nM): 12%
- CELL CYCLE AVG G1 (Mel-P3-Pre [5]; B-Raf 10 uM, HDAI 0 nM): 92
- CELL CYCLE AVG G2/M (Mel-P3-Pre [5]; B-Raf 10 uM, HDAI 0 nM): 4
- CELL CYCLE AVG S (Mel-P3-Pre [5]; B-Raf 10 uM, HDAI 0 nM): 4
- sub-G1 % (Mel-P3-Pre [5]; B-Raf 10 uM, HDAI 0 nM): 20%
- G1 arrest (in words) (Mel-P3-Pre [5]; Mel-P3 “pre” cell line): potent G1 arrest
- apoptosis (in words) (Mel-P3-Pre [5]; Mel-P3 “pre” cell line): low level apoptosis
- CELL CYCLE AVG G1 (Mel-P3-Post [6]; B-Raf 0.1 uM, HDAI 0 nM): 65
- CELL CYCLE AVG G2/M (Mel-P3-Post [6]; B-Raf 0.1 uM, HDAI 0 nM): 12
- CELL CYCLE AVG S (Mel-P3-Post [6]; B-Raf 0.1 uM, HDAI 0 nM): 23
- sub-G1 % (Mel-P3-Post [6]; B-Raf 0.1 uM, HDAI 0 nM): 2%
- CELL CYCLE AVG G1 (Mel-P3-Post [6]; B-Raf 1 uM, HDAI 0 nM): 68
- CELL CYCLE AVG G2/M (Mel-P3-Post [6]; B-Raf 1 uM, HDAI 0 nM): 10
- CELL CYCLE AVG S (Mel-P3-Post [6]; B-Raf 1 uM, HDAI 0 nM): 22
- sub-G1 % (Mel-P3-Post [6]; B-Raf 1 uM, HDAI 0 nM): 2%
- CELL CYCLE AVG G1 (Mel-P3-Post [6]; B-Raf 10 uM, HDAI 0 nM): 72
- CELL CYCLE AVG G2/M (Mel-P3-Post [6]; B-Raf 10 uM, HDAI 0 nM): 7
- CELL CYCLE AVG S (Mel-P3-Post [6]; B-Raf 10 uM, HDAI 0 nM): 21
- sub-G1 % (Mel-P3-Post [6]; B-Raf 10 uM, HDAI 0 nM): 4%
- G1 arrest (in words) (Mel-P3-Post [6]; Mel-P3 “post” cell line): weaker G1 arrest
- apoptosis (in words) (Mel-P3-Post [6]; Mel-P3 “post” cell line): no apoptosis
